From US5043332A, “Novel 11β-substituted -19-nor-steriods” (priority 1981, dated 1991)

Key:
uterine endometrium [1] = assay: Anti-progestomimetic activity versus progesterone, intrauterine, change in uterine endometrium (McPhail); format: in vivo, immature female rabbits
Procedure: (§1) Groups of three immature female rabbits weighing about 1 kg were topically treated on the dorsal skin with 25 μg of estradiol in 10 μl of ethanol on day 1. On day 4 the product to be tested dissolved in 0.1 ml, of sesame oil containing 5% benzyl alcohol was introduced into a part of the uterus isolated between two ligatures. On the sixth day the animals were sacrificed, their uteruses retained and fixed in Bouin's solution for histological examination. Changes in the uterine endometrium were noted after the method of McPhail.

granuloma = assay: Anti-inflammatory activity, classical granuloma test (cotton pellets); format: in vivo, Wistar rats; conditions: subcutaneous dose of 50 mg/kg
Procedure: II. Anti-inflammatory Activity
(§2) The anti-inflammatory activity of the compound of Example 4 was determined by the classical granuloma test by a modification of the Meier et al test [Experientia, Vol. 6 (1950), p. 469] in which normal female Wistar rats weighing 100 to 110 g received an implantation of 2 pellets of cotton weighing 10 mg each under the thorax skin. The subcutaneous treatment which began immediately after the implantation for 2 days was 2 injections per day. 16 hours after the last injection, the animals were killed and the pellets together with the granuloma tissue formed were weighed in the fresh state and after 16 hours at 60° C. The weight of the granuloma was obtained by subtracting the initial weight of the cotton. The thymus was also removed and weighed to determine the thymolytic activity of the test product.

thymus = assay: Thymolytic activity in the granuloma test; format: in vivo, Wistar rats; conditions: subcutaneous dose of 50 mg/kg
Procedure: as §2

uterine endometrium [2] = assay: Progestomimetic activity, intrauterine, change in uterine endometrium (McPhail); format: in vivo, immature female rabbits; conditions: method of McPhail
Procedure: as §1

female rats = assay: Anti-implantation and abortive activities in female rats; format: in vivo, rat; conditions: by mouth
Procedure: V. ANTI-IMPLANTATION AND ABORTIVE ACTIVITIES IN FEMALE RATS
The first day of gestation is determined by the presence of sperm in the vagina.
The animals were sacrificed between the 5th and 8th day after the last treatment and the uterus was examined.

uterine endometrium [3] = assay: Progestomimetic activity, oral, change in uterine endometrium (McPhail); format: in vivo, immature female rabbits
Procedure: IV. Progestomimetic and Anti-progestomimetic Activity
a) Groups of immature female rabbits weighing about 1 kg had administered to them subcutaneously from day 1 to day 5, 5 μg of estradiol. The product tested was afterward administered orally from day 8 to day 11 in a volume of 0.5 cm^3 of water containing 0.5% of carboxymethyl cellulose and 0.2% of Tween. On day 12, the rabbits were sacrificed, their uteruses were retained and fixed in Bouin's solution and histologically studied.
The changes in the uterine endometrium were noted according to the method of McPhail.

CC#C[C@]1(O)CC[C@H]2[C@@H]3CCC4=CC(=O)CCC4=C3[C@@H](c3ccc(N(C)C)cc3)C[C@@]21C [Example 19, 11β-[4-(N,N-dimethylamino)-phenyl]-17α-(prop-1-ynyl)-Δ^4,9-estradiene-17β-ol-3-one]
CHANGE IN THE ENDOMETRIUM (uterine endometrium [1]; progesterone 10 μg + 1 μg/rabbit): 1.6 | CHANGE IN THE ENDOMETRIUM (uterine endometrium [1]; progesterone 10 μg + 3 μg/rabbit): 1.3 | CHANGE IN THE ENDOMETRIUM (uterine endometrium [1]; progesterone 10 μg + 10 μg/rabbit): 1.0 | CHANGE IN THE ENDOMETRIUM (uterine endometrium [1]; progesterone 10 μg + 30 μg/rabbit): 0.6 | CHANGE IN THE ENDOMETRIUM (uterine endometrium [1]; progesterone 10 μg + 90 μg/rabbit): 0.6 | glucocorticoidal anti-inflammatory activity (granuloma): did not show any glucocorticoidal anti-inflammatory activity | thymolytic activity (thymus): did not show any glucocorticoidal anti-inflammatory activity or thymolytic activity | CHANGE IN THE ENDOMETRIUM (uterine endometrium [2]; 30 μg/rabbit): 0 | CHANGE IN THE ENDOMETRIUM (uterine endometrium [2]; 500 μg/rabbit): 0 | RESULTS (anti-implantation / abortion) (female rats; days 1, 2, 3, 2 mg/kg/day): No action | RESULTS (anti-implantation / abortion) (female rats; days 1, 2, 3, 10 mg/kg/day): Non-implantation | RESULTS (anti-implantation / abortion) (female rats; days 4, 5, 6, 2 mg/kg/day): Non-implantation | RESULTS (anti-implantation / abortion) (female rats; days 4, 5, 6, 10 mg/kg/day): Non-implantation | RESULTS (anti-implantation / abortion) (female rats; days 7, 8, 9, 2 mg/kg/day): Abortion | RESULTS (anti-implantation / abortion) (female rats; days 7, 8, 9, 10 mg/kg/day): Abortion | RESULTS (anti-implantation / abortion) (female rats; days 10, 11, 12, 2 mg/kg/day): Abortion | RESULTS (anti-implantation / abortion) (female rats; days 10, 11, 12, 10 mg/kg/day): Abortion | Abortion, % of the animals (female rats; days 13, 14, 15, 2 mg/kg/day): 50% | RESULTS (anti-implantation / abortion) (female rats; days 13, 14, 15, 10 mg/kg/day): Abortion | CHANGE IN THE ENDOMETRIUM (uterine endometrium [3]; 0.3 mg/kg by mouth): 0 McPHAIL UNTS | CHANGE IN THE ENDOMETRIUM (uterine endometrium [3]; 1.0 mg/kg by mouth): 0 McPHAIL UNTS | CHANGE IN THE ENDOMETRIUM (uterine endometrium [3]; 3.0 mg/kg by mouth): 0 McPHAIL UNTS | CHANGE IN THE ENDOMETRIUM (uterine endometrium [3]; 10.0 mg/kg by mouth): 0 McPHAIL UNTS | CHANGE IN THE ENDOMETRIUM (uterine endometrium [3]; 50 mg/kg by mouth): 0 McPHAIL UNTS
